# Key:
# L. innocua = assay: Minimum inhibitory concentration in liquid culture (serial dilutions, turbidity); assay type: cell-based, Listeria innocua ATCC 33090; conditions: 24 h
# Procedure: (§1) To evaluate the antimicrobial capacity of the ink prepared from the NQoT dispersion, the minimum concentration that is able to inhibit the visible development of the bacterial strains S. aureus; E. coli; P. aeruginosa; S. typhimurium; E. aerogenes and L. innocua in a liquid culture medium (trypticase soy broth), after 24 h incubation, was determined. Bacterial strains were obtained from an isolated colony on a selective and differential agar plate for each genus, and were inoculated in nutritious broth for 24 h at 37° C. with stirring until obtaining a saturated culture. Then, the desired concentration of microorganisms was determined, in comparison with the standard of McFarland 0.5, and the corresponding dilutions were made in order to reach a concentration of 1×10^5 CFU/ml (colony-forming units/ml). To each culture tube, agents in serial dilutions were added, and incubated at 37° C. for 24 h; then, the lowest concentration of the mixture capable of inhibiting bacterial growth, given by absence of turbidity in the culture medium, was determined. The solutions used to generate the Nps and nanoparticles without T in their formulation (NQo) were used as controls. […]
# E. aerogenes = assay: as above; assay type: cell-based, Enterobacter aerogenes ATCC 13048; conditions: 24 h
# Procedure: as §1
# E. coli [1] = assay: as above; assay type: cell-based, Escherichia coli ATCC 25922; conditions: 24 h
# Procedure: as §1
# Listeria innocua = conditions: Guarda et al., 2011; cited from earlier work
# E. coli [2] = conditions: Guarda et al., 2011; cited from earlier work
# S. aureus [3] = conditions: Guarda et al., 2011; cited from earlier work
# S. cereviciae = conditions: Guarda et al., 2011; cited from earlier work
# B. cinerea = assay: Minimum inhibitory concentration against the fungus; assay type: cell-based, Botrytis cinerea wt
# S. typhimurium = assay: Minimum inhibitory concentration in liquid culture (serial dilutions, turbidity); assay type: cell-based, Salmonella serovar Typhimurium ATCC 14028; conditions: S. Tiphymurium; 24 h
# Procedure: as §1
# B. cinerea mycelium = assay: Inhibition of Botrytis cinerea mycelium (radial growth on agar); assay type: cell-based; conditions: for Radial mycelial growth area: 6 days at 25° C., untreated 8.5 cm^2
# Procedure: The antifungal activity of the NQoT dispersion was evaluated by inhibiting the radial development in the fungus mycelial plate, described by Yildirim et al., (2007). For that purpose, a portion of mycelium was sterilely taken, using a punch, from a strain previously cultivated for 5 days at 25° C., which was placed in the center of a potato dextrose agar plate mixed with dilutions of the NQoT dispersion until obtaining in the agar concentrations of 0.44 mg/ml (dispersion diluted to 10% v/v), 1.1 mg/ml (dispersion diluted to 25% v/v) and 2.2 mg/ml (dispersion diluted to 50% v/v). These plates were incubated for 6 days at 25° C., being evaluated every 24 h. The antifungal activity was determined through the mycelium propagation area of the plates containing NQoT, and were compared with agar plates containing T solutions, mixture of QoLMW-T, and the NQo dispersion in the same dilutions, and a culture of the fungus seeded in a plate without treatment, whose propagation on the surface of the plate (8.5 cm2) is equivalent to a 100% development, which was used as a parameter of growth comparison.
# On the other hand, the antifungal capacity of the NQoTs confronted to the vegetative form of Botrytis cinerea was tested, wherein the growth inhibition of this fungus' mycelium was assessed, adding diluted concentrations to the culture medium of the NQoT dispersion. The dilutions tested corresponded to 10%, 25% and 50% v/v, and were compared to T's solutions, QoLMW-T mixture, and NQo dispersion in the same dilutions.
# It was observed, when the culture medium lacked the solutions or dispersions to be tested (viability control), that the fungus spread over the surface of the plate (8.5 cm^2), equivalent to 100% growth, which was used as a growth comparison parameter.
# A. niger = conditions: Guarda et al., 2011; cited from earlier work
# S. aureus [4] = assay: Minimum inhibitory concentration in liquid culture (serial dilutions, turbidity); assay type: cell-based, Staphylococcus aureus ATCC 25923; conditions: 24 h
# Procedure: as §1
# P. aeruginosa = assay: as above; assay type: cell-based, Pseudomonas aeruginosa ATCC 27853; conditions: Ps. aeruginosa; 24 h
# Procedure: as §1
# [5] = agent diluted to 10% v/v in culture medium
# [6] = agent diluted to 25% v/v in culture medium
compound,measurement,setting,value
Cc1ccc(C(C)C)c(O)c1 [thymol],Minimum inhibitory concentration,L. innocua,0.275 gL^−1
same,Minimum inhibitory concentration,E. aerogenes,0.250 gL^−1
same,Minimum inhibitory concentration,E. coli [1],0.250 gL^−1
same,Minimum inhibitory concentration (MIC),Listeria innocua,250 ppm
same,Minimum inhibitory concentration (MIC),E. coli [2],250 ppm
same,Minimum inhibitory concentration (MIC),S. aureus [3],250 ppm
same,Minimum inhibitory concentration (MIC),S. cereviciae,125 ppm
same,Minimum inhibitory concentration,B. cinerea,0.550 gL^−1
same,Minimum inhibitory concentration,S. typhimurium,0.250 gL^−1
same,Inhibition of mycelial growth versus viability control,B. cinerea mycelium; [5],4.7%
same,Radial mycelial growth area,B. cinerea mycelium; [5],8.1±0.1 cm^2
same,Inhibition of mycelial growth versus viability control,B. cinerea mycelium; [6],20%
same,Radial mycelial growth area,B. cinerea mycelium; [6],6.8±0.8 cm^2
same,Minimum inhibitory concentration (MIC),A. niger,250 ppm
same,Minimum inhibitory concentration,S. aureus [4],0.275 gL^−1
same,Minimum inhibitory concentration,P. aeruginosa,0.225 gL^−1

# From patent US20190281845A1, “EDIBLE BIO-ACTIVE FILMS BASED ON CHITOSAN OR A MIXTURE OF QUINOA PROTEIN-CHITOSAN; SHEETS HAVING CHITOSAN-TRIPOLYPHOSPHATE-THYMOL NANOPARTICLES; PRODUCTION METHOD; BIO-PACKAGING COMPRISING SAME; AND USE THEREOF IN FRESH FRUIT WITH A LOW PH” (Universidad de Chile, priority 2016, published 2019)
